Earlier results in patent publication US20240009133A1, “METHODS OF TREATING AUTOIMMUNE OR INFLAMMATORY CONDITIONS WITH CANNABIDIOL OR ITS DERIVATIVES/ANALOGS” (ORCOSA INC., priority 2020, published 2024).

Conditions: oral, randomized control trial in Crohn's disease

C=C(C)[C@@H]1CCC(C)=C[C@H]1c1c(O)cc(CCCCC)cc1O [CBD, cannabidiol]
efficacy: no statistical efficacy demonstrated | safety: safe
